# Reference: patent publication US10681909B2, “Herbicidal triazoles” (FMC Corporation, priority 2014, dated 2020)
# Experiments:
# kochia = assay: Test A postemergence; format: in vivo, Kochia scoparia; conditions: 0 to 100 scale (0 no effect, 100 complete control), approx. 10 d
# How it was run: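 Ratings reflect visual injury after ~10 d in greenhouse, 0 = no effect, 100 = complete control. Postemergence treatment was applied to one- to two-leaf seedlings; preemergence treatment was a directed soil spray at planting.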
# nutsedge, yellow = assay: Test C preemergence; format: in vivo, Cyperus esculentus; conditions: for Plant response rating (scale of 0 to 100 where 0 is no effect and 100 is complete control): Nutsedge, Yellow, preemergence; for Nutsedge, Yellow plant response rating (0 to 100): Preemergence, visual rating after 13 to 15 d
# Excerpt: (§1) Seeds of plant species selected from blackgrass (Alopecurus myosuroides), ryegrass, Italian (Italian ryegrass, Lolium multiflorum), wheat (winter wheat, Triticum aestivum), galium (catchweed bedstraw, Galium aparine), corn (Zea mays), crabgrass, large (large crabgrass, Digitaria sanguinalis), foxtail, giant, (giant foxtail, Setaria faberii), johnsongrass (Sorghum halepense), lambsquarters (Chenopodium album), morningglory (Ipomoea coccinea), nutsedge, yellow (yellow nutsedge, Cyperus esculentus), pigweed (Amaranthus retroflexus), ragweed (common ragweed, Ambrosia elatior), soybean (Glycine max), barnyardgrass (Echinochloa crus-galli), oilseed rape (Brassica napus), waterhemp (common waterhemp, Amaranthus rudis), and velvetleaf (Abutilon theophrasti) were planted into a blend of loam soil and sand and treated preemergence with test chemicals formulated in a non-phytotoxic solvent mixture which included a surfactant. At the same time, plants selected from these crop and weed species and also chickweed (common chickweed, Stellaria media), oat, wild (wild oat, Avena fatua), and kochia (Kochia scoparia), were planted in pots containing Sunshine Redi-Earth® planting medium comprising spaghnum peat moss, vermiculite, starter nutrients and dolomitic limestone and treated with postemergence applications of test chemicals formulated in the same manner. Plants ranged in height from 2 to 18 cm (1- to 4-leaf stage) for postemergence treatments. […] A dash (-) response means no test result.
# oilseed rape = assay: Test C preemergence; format: in vivo, Brassica napus; conditions: for Plant response rating (scale of 0 to 100 where 0 is no effect and 100 is complete control): Oilseed Rape, preemergence; for Oilseed Rape plant response rating (0 to 100): Preemergence, visual rating after 13 to 15 d
# Excerpt: as §1
# field violet = assay: Test D preemergence; format: in vivo, Viola arvensis; conditions: for Plant response rating (0 to 100), Field Violet: 16 g ai/ha, 0 is no effect, 100 is complete control; for Plant response rating: Field Violet: scale 0 to 100
# Excerpt: (§2) Seeds of plant species selected from bluegrass (annual bluegrass, Poa annua), blackgrass (Alopecurus myosuroides), canarygrass (Phalaris minor), chickweed (common chickweed, Stellaria media), galium (catchweed bedstraw, Galium aparine), bromegrass, down (downy bromegrass, Bromus tectorum), Russian thistle (Salsola kali), field poppy (Papaver rhoeas), field violet (Viola arvensis), foxtail, green (green foxtail, Setaria viridis), deadnettle (henbit deadnettle, Lamium amplexicaule), ryegrass, Ital. (Italian ryegrass, Lolium multiflorum), kochia (Kochia scoparia), lambsquarters (Chenopodium album), oilseed rape (Brassica napus), pigweed (Amaranthus retroflexus), chamomile (scentless chamomile, Matricaria inodora), speedwell (bird's-eye speedwell, Veronica persica), barley, spring (spring barley, Hordeum vulgare), wheat, spring (spring wheat, Triticum aestivum), buckwheat, wild (wild buckwheat, Polygonum convolvulus), wild mustard (Sinapis arvensis), oat, wild (wild oat, Avena fatua), radish, wild (wild radish, Raphanus raphanistrum), […]), barley, winter (winter barley, Hordeum vulgare), and wheat, winter (winter wheat, Triticum aestivum) were planted into a silt loam soil and treated preemergence with test chemicals formulated in a non-phytotoxic solvent mixture which included a surfactant. At the same time, these species were planted in pots containing Sunshine Redi-Earth® planting medium comprising spaghnum peat moss, vermiculite, starter nutrients and dolomitic limestone and treated with postemergence applications of the test chemicals formulated in the same manner. Plants ranged in height from 2 to 18 cm (1- to 4-leaf stage). Treated plants and controls were maintained in a controlled growth environment for 14 to 21 d after which time all species were compared to controls and visually evaluated. […] A dash (-) response means no test result.
# buckwheat, wild = assay: Test D preemergence; format: in vivo, Polygonum convolvulus; conditions: for Plant response rating (0 to 100), Buckwheat, Wild: 16 g ai/ha, 0 is no effect, 100 is complete control; for Plant response rating: Buckwheat, Wild: scale 0 to 100
# Excerpt: as §2
# windgrass = assay: Test D preemergence; format: in vivo, Apera spica-venti; conditions: for Plant response rating (0 to 100), Windgrass: 16 g ai/ha, 0 is no effect, 100 is complete control; for Plant response rating: Windgrass: scale 0 to 100
# Excerpt: as §2
# barley, spring = assay: Test D postemergence; format: in vivo, Hordeum vulgare; conditions: scale 0 to 100
# Excerpt: as §2
# barley, winter = assay: Test D postemergence; format: in vivo, Hordeum vulgare; conditions: scale 0 to 100
# Excerpt: as §2
# wheat = assay: Test A preemergence; format: in vivo, Triticum aestivum; conditions: Triticum aestivum, pre-emergence, 240 h, 0 to 100 scale (0 no effect, 100 complete control), read-out: Plant response rating, Wheat; for plant injury at 125 g/ha: 125 g ai/ha; for plant injury at 500 g/ha: 500 g ai/ha, approx. 10 d
# How it was run: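 Loam/sand soil mix; compound in non-phytotoxic solvent + surfactant. Pre: directed soil spray right after planting seed. Post: potted plants 2–10 cm, 1–2 leaf stage, sprayed with same formulation.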
Structure (SMILES),"Plant response rating (scale of 0 to 100 where 0 is no effect and 100 is complete control) (nutsedge, yellow; 250 g ai/ha)","Nutsedge, Yellow plant response rating (0 to 100) (nutsedge, yellow; 31 g ai/ha)","Nutsedge, Yellow plant response rating (0 to 100) (nutsedge, yellow; 62 g ai/ha)",Plant response rating (scale of 0 to 100 where 0 is no effect and 100 is complete control) (oilseed rape; 125 g ai/ha),Plant response rating (scale of 0 to 100 where 0 is no effect and 100 is complete control) (oilseed rape; 250 g ai/ha),Oilseed Rape plant response rating (0 to 100) (oilseed rape; 31 g ai/ha),Oilseed Rape plant response rating (0 to 100) (oilseed rape; 62 g ai/ha),Plant response rating: Field Violet (field violet; 62 g ai/ha),Plant response rating: Field Violet (field violet; 125 g ai/ha),"Plant response rating: Buckwheat, Wild (buckwheat, wild; 31 g ai/ha)","Plant response rating: Buckwheat, Wild (buckwheat, wild; 62 g ai/ha)","Plant response rating: Buckwheat, Wild (buckwheat, wild; 125 g ai/ha)",Plant response rating: Windgrass (windgrass; 62 g ai/ha),Plant response rating: Windgrass (windgrass; 125 g ai/ha),"Plant response rating: Barley, Spring (barley, spring; 31 g ai/ha)","Plant response rating: Barley, Spring (barley, spring; 62 g ai/ha)","Plant response rating: Barley, Spring (barley, spring; 125 g ai/ha)","Plant response rating: Barley, Winter (barley, winter; 31 g ai/ha)","Plant response rating: Barley, Winter (barley, winter; 62 g ai/ha)","Plant response rating: Barley, Winter (barley, winter; 125 g ai/ha)",other results
"CCOc1nc(-c2ccc(C(F)(F)F)cc2)nn1Cc1ccnc(C(F)(F)F)c1 [Compound 35, 4-[[5-ethoxy-3-[4-(trifluoromethyl)phenyl]-1H-1,2,4-triazole-1-yl]methyl]-2-(trifluoromethyl)pyridine]",0,0,0,90,90,80,75,100,100,70,70,95,85,100,40,40,50,40,40,50,"Plant response rating, Kochia (kochia; 31 g ai/ha): 90; Plant response rating, Kochia (kochia; 125 g ai/ha): 90; Plant response rating (scale of 0 to 100 where 0 is no effect and 100 is complete control) (nutsedge, yellow; 125 g ai/ha): 0; Plant response rating (0 to 100), Field Violet (field violet): 95; Plant response rating (0 to 100), Buckwheat, Wild (buckwheat, wild): 65; Plant response rating (0 to 100), Windgrass (windgrass): 70; Plant response rating: Barley, Spring (barley, spring; 16 g ai/ha): 30; Plant response rating: Barley, Winter (barley, winter; 16 g ai/ha): 25"
COc1nc(-c2ccc(Cl)cc2)nn1Cc1ccnc(C(F)(F)F)c1 [Compound 28],,,,,,,,95,100,65,75,95,50,80,20,20,25,15,20,25,"Plant response rating, Kochia (kochia; 125 g ai/ha): 90; Plant response rating, Kochia (kochia; 500 g ai/ha): 90; Plant response rating (0 to 100), Field Violet (field violet): 65; Plant response rating (0 to 100), Buckwheat, Wild (buckwheat, wild): 60; Plant response rating (0 to 100), Windgrass (windgrass): 25; Plant response rating: Barley, Spring (barley, spring; 16 g ai/ha): 15; Plant response rating: Barley, Winter (barley, winter; 16 g ai/ha): 10"
"CCOc1nc(-c2ccc(F)cc2)nn1Cc1ccnc(C(F)(F)F)c1 [Compound 8, 4-[[5-ethoxy-3-(4-fluorophenyl)-1H-1,2,4-triazol-1-yl]methyl]-2-(trifluoromethyl)pyridine]",80,10,40,100,100,95,95,100,100,35,100,100,90,100,25,30,35,20,30,35,"plant injury at 125 g/ha (wheat): 80%; plant injury at 500 g/ha (wheat): 100%; Plant response rating (scale of 0 to 100 where 0 is no effect and 100 is complete control) (nutsedge, yellow; 125 g ai/ha): 55; Plant response rating: Field Violet (field violet; 250 g ai/ha): 100; Plant response rating: Buckwheat, Wild (buckwheat, wild; 250 g ai/ha): 100; Plant response rating: Windgrass (windgrass; 250 g ai/ha): 100; Plant response rating: Barley, Spring (barley, spring; 250 g ai/ha): 35; Plant response rating: Barley, Winter (barley, winter; 250 g ai/ha): 35"
"CCc1nc(-c2ccc(C(F)(F)F)cc2)nn1Cc1ccnc(C(F)(F)F)c1 [Compound 1, 4-[[5-ethyl-3-[4-(trifluoromethyl)phenyl]-1H-1,2,4-triazol-1-yl]methyl]-2-(trifluoromethyl)pyridine]",15,0,5,100,100,25,90,95,100,60,70,65,100,100,20,35,35,20,25,35,"plant injury at 125 g/ha (wheat): 20%; plant injury at 500 g/ha (wheat): 30%; Plant response rating: Field Violet (field violet; 250 g ai/ha): 100; Plant response rating: Buckwheat, Wild (buckwheat, wild; 250 g ai/ha): 100; Plant response rating: Windgrass (windgrass; 250 g ai/ha): 100; Plant response rating: Barley, Spring (barley, spring; 250 g ai/ha): 40; Plant response rating: Barley, Winter (barley, winter; 250 g ai/ha): 40"
